Values quoted from earlier work as cited in PMC10705946, “^225Ac-iPSMA-RGD for Alpha-Therapy Dual Targeting of Stromal/Tumor Cell PSMA and Integrins” (International Journal of Molecular Sciences, 2023).
Ends that are not written are not given here.

System: glioma cells
Parameters: method as in PMID 29611298
Details: after 24 h of treatment, cells overexpressing the substance P receptor; cited from earlier work

## ^225Ac-labeled substance P: ^225Ac-labeled ligand of the neurokinin-1 receptor (RPKPQQFFGLM; ends and bridges not checked; also: 225Ac radiolabel, attachment not given here; UniProt P20366 58-68, looked up)
  Increase of apoptotic cells: 25%
